# Assay results published in patent US20190225644A1, “MRNA CAP ANALOGS AND METHODS OF MRNA CAPPING” (ModernaTX, Inc., priority 2015, published 2019).
# “And” between values parts separate entries of the source, which are not always exact repeats. Equal values may be shown once. Read-outs that look alike come from different tables or passages of the source.
# Assays:
# HeLa Lysate = test: Cap competition assay in kinetic cell free in vitro translation (free cap analogs); type: biochemical; details: free cap analog 0-100 uM against Cap1-tipped eGFP modRNA, fluorescence plateau
# Procedure: The in vitro translation assay was conducted with the HeLa 1-step coupled IVT kit (ThermoFisher Scientific, Waltham, Mass.) according to the manufacturer's instructions to assess performance of new cap analogs as free compounds or as an integral part of capped mRNA. Cap analogs with affinity to eIF4E protein may reduce protein synthesis rate in cell-free translation. Further, RNAs containing such cap analogs (“Cap-modRNA”) show different potency of protein synthesis in cell-free translation.
# For competition assays, the total volume of the cell-free translation reaction was increased to 27.8 uL by addition of either water or diluted free CAP analogs in water. The stock concentration of the free CAP analogs was 1 mM. With two-fold dilutions in water, the concentration was reduced sequentially. […] The CAP analogs used in this study were either commercial products serving as reference material (TriLink, San Diego, Calif.) or compounds disclosed herein. It is hypothesized that the small molecule cap analogs interfere with the assembly of the “closed loop” in a Kd-dependent fashion.
# After the fluorescent signal in cell-free translation reaction reached a stable plateau, absolute values thereof were transferred to a statistical analysis program (GraphPad Software, La Jolla, Calif.) and curve fitting or IC50 calculations were derived with settings according to the instructions of the manufacturer.
# The results from the cap competition assays are illustrated in FIGS. 1A-1C and 2A-2D. In this study, each of the modRNAs used comprises 1-methyl-pseudouridine, which replaces each uridine in the RNA sequence and 5-methyl cytidine, which replaces each cytidine in the RNA sequence. Further, Table 11 includes the IC50 values of certain compounds of the disclosure.
# eIF4E [1] = target: T1, eIF4E (Homo sapiens, UniProt P06730)
# eIF4E [2] = target: T1, eIF4E; test: Binding affinities to eIF4E using surface plasmon resonance (SPR); details: for koff: read-out: koff (s^−1)
# eIF4E [3] = target: T1, eIF4E; test: biochemical
# T1 sequence (P06730 32-217): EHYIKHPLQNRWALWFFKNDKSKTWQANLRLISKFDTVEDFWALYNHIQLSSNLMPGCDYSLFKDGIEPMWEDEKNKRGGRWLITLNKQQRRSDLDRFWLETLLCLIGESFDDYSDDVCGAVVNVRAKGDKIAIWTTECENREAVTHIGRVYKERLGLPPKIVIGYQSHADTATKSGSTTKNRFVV
IC50 (HeLa Lysate),koff (eIF4E [1]),Kd (eIF4E [3]),Compound,τ (eIF4E [2]),koff (eIF4E [2])
35 µM,–,–,"Cn1c[n+]([C@@H]2O[C@H](COP(=O)(O)OP(=O)([O-])OP(=O)(O)OC[C@H]3O[C@@H](n4cnc5c(=O)[nH]c(N)nc54)[C@H](O)[C@@H]3O)[C@@H](O)[C@H]2O)c2nc(N)[nH]c(=O)c21 [Cap0, m7GpppG, reference compound]",–,–
25 µM,0.08 s⁻¹,–,Nc1nc2c(ncn2[C@@H]2O[C@H](COP(=O)(O)OP(=O)(O)OP(=O)(O)OC[C@H]3O[C@@H](c4cn(CCOc5ccc(Cl)cc5)c5c(=O)[nH]c(N)nc45)[C@H](O)[C@@H]3O)[C@@H](O)[C@H]2O)c(=O)[nH]1 [Compound 005-1],–,–
–,–,0.5 to 1.1 µM,BP(=O)(OP(=O)([O-])OC[C@H]1O[C@@H](n2c[n+](C)c3c(=O)[nH]c(N)nc32)[C@H](OC)[C@@H]1O)OP(=O)(O)OC[C@H]1O[C@@H](n2cnc3c(=O)[nH]c(N)nc32)[C@H](O)[C@@H]1O (stereo partly drawn) [Compound 005-3],–,–
2 µM,0.04 s⁻¹,0.2 µM,CO[C@@H]1[C@H](O)[C@@H](COP(=O)(O)OP(=O)([O-])OP(=O)(O)OC[C@H]2O[C@@H](n3cnc4c(=O)[nH]c(N)nc43)[C@H](O)[C@@H]2O)O[C@H]1n1c[n+](CCOc2ccc(Cl)cc2)c2c(=O)[nH]c(N)nc21 [Compound 005-5],–,–
–,0.41 s⁻¹,1.1 µM,CO[C@@H]1[C@H](O)[C@@H](COP(=O)(O)OP(=O)([O-])OP(=O)([O-])OP(=O)(O)OC[C@H]2O[C@@H](n3c[n+](C)c4c(=O)[nH]c(N)nc43)[C@H](O)[C@@H]2O)O[C@H]1n1c[n+](C)c2c(=O)[nH]c(N)nc21 [Compound 005-6],–,–
–,0.26 s⁻¹,2.7 µM,CO[C@@H]1[C@H](O)[C@@H](COP(=O)([O-])OP(=O)([O-])OP(=O)(O)OC[C@H]2O[C@@H](n3c[n+](C)c4c(=O)[nH]c(N)nc43)[C@H](O)[C@@H]2O)O[C@H]1n1c[n+](C)c2c(=O)[nH]c(N)nc21 [Compound 005-7],–,–
–,3.8 s⁻¹,75 µM,CO[C@@H]1[C@H](O)[C@@H](COP(=O)([O-])OP(=O)([O-])OC[C@H]2O[C@@H](n3c[n+](C)c4c(=O)[nH]c(N)nc43)[C@H](O)[C@@H]2O)O[C@H]1n1c[n+](C)c2c(=O)[nH]c(N)nc21 [Compound 005-8],–,–
9 µM,0.41 s⁻¹,1.1 µM and 1 µM,C[n+]1cn([C@@H]2O[C@H](COP(=O)(O)OP(=O)([O-])OP(=O)([O-])OP(=O)(O)OC[C@H]3O[C@@H](n4c[n+](C)c5c(=O)[nH]c(N)nc54)[C@H](O)[C@@H]3O)[C@@H](O)[C@H]2O)c2nc(N)[nH]c(=O)c21 [Compound 005-9],–,–
92 µM,–,–,C[n+]1cn([C@@H]2O[C@H](COP(=O)(O)OP(=O)([O-])OP(=O)(O)OC[C@H]3O[C@@H](n4cnc5c(=O)[nH]c(N)nc54)[C@H](O)[C@@H]3O)[C@@H](O)[C@@H]2O)c2nc(N)[nH]c(=O)c21 [Compound 005-11],–,–
318 µM,–,218 µM,C=CCn1c(=O)n([C@@H]2O[C@H](COP(=O)(O)OP(=O)(O)OP(=O)(O)OC[C@H]3O[C@@H](n4cnc5c(=O)[nH]c(N)nc54)[C@H](O)[C@@H]3O)[C@H]3OC(C)(C)O[C@@H]32)c2nc(N)[nH]c(=O)c21 [Compound 005-13],–,–
–,3.8 s⁻¹,75 µM,C[n+]1cn([C@@H]2O[C@H](COP(=O)([O-])OP(=O)([O-])OC[C@H]3O[C@@H](n4c[n+](C)c5c(=O)[nH]c(N)nc54)[C@H](O)[C@@H]3O)[C@@H](O)[C@H]2O)c2nc(N)[nH]c(=O)c21 [Compound 005-15],–,–
–,0.94 s⁻¹,4.2 µM,COCCO[C@@H]1[C@H](O)[C@@H](COP(=O)(O)OP(=O)([O-])OP(=O)(O)OC[C@H]2O[C@@H](n3cnc4c(=O)[nH]c(N)nc43)[C@H](OC)[C@@H]2O)O[C@H]1n1c[n+](C)c2c(=O)[nH]c(N)nc21 [Compound 005-19],–,–
–,–,3.58 µM,C[n+]1cn([C@H]2C[C@H](O)[C@@H](COP(=O)(O)OP(=O)([O-])OP(=O)(O)OC[C@H]3O[C@@H](n4cnc5c(=O)[nH]c(N)nc54)[C@H](O)[C@@H]3O)O2)c2nc(N)[nH]c(=O)c21 [Compound 005-31],–,–
–,1 s⁻¹,9.1 µM,C#CCN1C[C@@H](COP(=O)([O-])OP(=O)(O)OP(=O)(O)OC[C@H]2O[C@@H](n3cnc4c(=O)[nH]c(N)nc43)[C@H](O)[C@@H]2O)O[C@@H](n2c[n+](C)c3c(=O)[nH]c(N)nc32)C1 [Compound 006-27],–,–
–,–,1.7 µM,BP(=O)(OP(=O)([O-])OC[C@H]1O[C@@H](n2cnc3c(=O)[nH]c(N)nc32)[C@H](O)[C@@H]1O)OP(=O)(O)OCC1CN(C)CC(n2c[n+](C)c3c(=O)[nH]c(N)nc32)O1 (stereo partly drawn) [Compound 006-30],–,–
–,0.33 s⁻¹,2.4 µM,C[n+]1cn(C2CN(Cc3ccccc3)CC(COP(=O)(O)OP(=O)([O-])OP(=O)([O-])OC[C@H]3O[C@@H](n4c[n+](C)c5c(=O)[nH]c(N)nc54)[C@H](O)[C@@H]3O)O2)c2nc(N)[nH]c(=O)c21 (stereo partly drawn) [Compound 006-31],–,–
–,–,12 µM,C[n+]1cn(C(CO)OC(CO)COP(=O)(O)OP(=O)(O)OP(=O)(O)OC[C@H]2O[C@@H](n3cnc4c(=O)[nH]c(N)nc43)[C@H](O)[C@@H]2O)c2nc(N)[nH]c(=O)c21 (stereo partly drawn) [Compound 006-36],–,–
–,1.5 s⁻¹,6.7 to 8.7 µM,CO[C@@H]1[C@H](O)[C@@H](COP(=O)(O)OP(=O)([O-])OP(=O)(O)OCC2CN(C)CC(n3c[n+](C)c4c(=O)[nH]c(N)nc43)O2)O[C@H]1n1cnc2c(=O)[nH]c(N)nc21 (stereo partly drawn) [Compound 006-39],–,–
–,0.34 s⁻¹,1.7 µM,CO[C@@H]1[C@H](O)[C@@H](COP(=O)(O)OP(=O)([O-])OP(=O)(O)OCC2CN(Cc3ccccc3)CC(n3c[n+](C)c4c(=O)[nH]c(N)nc43)O2)O[C@H]1n1cnc2c(=O)[nH]c(N)nc21 (stereo partly drawn) [Compound 006-40],–,–
–,0.057 s⁻¹,0.1 µM,C[C@@]1(O)[C@H](O)[C@@H](COP(=O)(O)OP(=O)(O)OP(=O)(O)OC[C@H]2O[C@@H](n3cnc4c(=O)[nH]c(N)nc43)[C@H](O)[C@@H]2O)O[C@H]1n1c[n+](CCOc2ccc(Cl)cc2)c2c(=O)[nH]c(N)nc21 [Compound 007-37],–,–
–,–,11 µM,CO[C@@H]1[C@H](O)[C@@H](COP(=O)(O)OP(=O)([O-])OP(=O)(O)OCC2O[C@@H](n3c[n+](C)c4c(=O)[nH]c(N)nc43)[C@](C)(O)[C@@H]2O)O[C@H]1n1cnc2c(=O)[nH]c(N)nc21 (stereo partly drawn) [Compound 007-38],–,–
–,–,110 µM,C[n+]1cn([C@@H]2O[C@H](COP(=O)([O-])OCCOCCOP(=O)([O-])OC[C@H]3O[C@@H](n4c[n+](C)c5c(=O)[nH]c(N)nc54)[C@H](O)[C@@H]3O)[C@@H](O)[C@H]2O)c2nc(N)[nH]c(=O)c21 [Compound 008-2],–,–
–,–,300 µM,C[n+]1cn([C@@H]2O[C@H](COP(=O)(O)OCCN(CCOP(=O)(O)OC[C@H]3O[C@@H](n4c[n+](C)c5c(=O)[nH]c(N)nc54)[C@H](O)[C@@H]3O)C(=O)OC(C)(C)C)[C@@H](O)[C@H]2O)c2nc(N)[nH]c(=O)c21 [Compound 008-25],–,–

Compound,IC50 (HeLa Lysate),koff (eIF4E [1]),Kd (eIF4E [3]),τ (eIF4E [2]),koff (eIF4E [2])
BP(=O)(OP(=O)([O-])OC[C@H]1O[C@@H](n2c[n+](CCOc3ccc(Cl)cc3)c3c(=O)[nH]c(N)nc32)[C@H](OC)[C@@H]1O)OP(=O)(O)OC[C@H]1O[C@@H](n2cnc3c(=O)[nH]c(N)nc32)[C@H](O)[C@@H]1O (stereo partly drawn) [Compound 005-2],–,–,0.1 µM,83.33 s,0.012 s⁻¹
BP(=O)(OP(=O)([O-])OC[C@H]1O[C@@H](n2c[n+](C)c3c(=O)[nH]c(N)nc32)[C@H](O)[C@@H]1O)OP(=O)(O)OC[C@H]1O[C@@H](n2cnc3c(=O)[nH]c(N)nc32)[C@H](O)[C@@H]1O (stereo partly drawn) [Compound 005-32],–,–,0.33 µM,9.09 s,0.11 s⁻¹
